{
  "source": "ChEMBL document CHEMBL1201862",
  "about": "“PubChem BioAssay data set” (2004)",
  "test_in_all_cases": "inhibition of tumour cell growth, NCI panel, 48 h",
  "key": {"786-0": {"system": "786-0"}, "A498": {"system": "A498"}, "A549": {"system": "A549"}, "ACHN": {"system": "ACHN"}, "BT-549": {"system": "BT-549"}, "CAKI-1": {"system": "CAKI-1"}, "CCRF-CEM": {"system": "CCRF-CEM"}, "COLO 205": {"system": "COLO 205"}, "DU-145": {"system": "DU-145"}, "EKVX": {"system": "EKVX"}, "HCC 2998": {"system": "HCC 2998"}, "HCT-116": {"system": "HCT-116"}, "HCT-15": {"system": "HCT-15"}, "HL-60": {"system": "HL-60"}, "HOP-62": {"system": "HOP-62"}, "HOP-92": {"system": "HOP-92"}, "HT-29": {"system": "HT-29"}, "IGROV-1": {"system": "IGROV-1"}, "K562": {"system": "K562"}, "KM12": {"system": "KM12"}, "LOX IMVI": {"system": "LOX IMVI"}, "M14": {"system": "M14"}, "MCF7": {"system": "MCF7"}, "MDA-MB-231": {"system": "MDA-MB-231"}, "MDA-MB-435": {"system": "MDA-MB-435"}, "MDA-N": {"system": "MDA-N"}, "MOLT-4": {"system": "MOLT-4"}, "Malme-3M": {"system": "Malme-3M"}, "NCI-H23": {"system": "NCI-H23"}, "NCI-H460": {"system": "NCI-H460"}, "NCI-H522": {"system": "NCI-H522"}, "NCI/ADR-RES": {"system": "NCI/ADR-RES"}, "OVCAR-3": {"system": "OVCAR-3"}, "OVCAR-4": {"system": "OVCAR-4"}, "OVCAR-5": {"system": "OVCAR-5"}, "OVCAR-8": {"system": "OVCAR-8"}, "PC-3": {"system": "PC-3"}, "RPMI-8226": {"system": "RPMI-8226"}, "SF-268": {"system": "SF-268"}, "SF-295": {"system": "SF-295"}, "SF-539": {"system": "SF-539"}, "SK-MEL-28": {"system": "SK-MEL-28"}, "SK-MEL-2": {"system": "SK-MEL-2"}, "SK-MEL-5": {"system": "SK-MEL-5"}, "SK-OV-3": {"system": "SK-OV-3"}, "SN12C": {"system": "SN12C"}, "SNB-19": {"system": "SNB-19"}, "SNB-75": {"system": "SNB-75"}, "SR": {"system": "SR"}, "SW-620": {"system": "SW-620"}, "TK-10": {"system": "TK-10"}, "U-251": {"system": "U-251"}, "UACC-257": {"system": "UACC-257"}, "UACC-62": {"system": "UACC-62"}, "UO-31": {"system": "UO-31"}},
  "note": "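Values below derive from 48-hour exposures of cells grown in 96-well plates, with endpoints linearly interpolated between the two concentrations bracketing the appropriate inhibition level. The concentration for 50% growth inhibition is given as GI50.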 Calls of active or inactive are those of the source. No stated cut-off is given here; in the data, active = GI50 up to about 1.1 µM and inactive = higher.",
  "data": [
    {"smiles": "CC(=O)NS(=O)(=O)c1ccc(NC(=O)c2c3ccccc3nc3ccccc23)cc1", "values": [
      {"measurement": "GI50", "setting": "786-0", "value": "> 100 µM (inactive)"},
      {"measurement": "GI50", "setting": "A498", "value": "> 100 µM (inactive)"},
      {"measurement": "GI50", "setting": "A549", "value": "> 100 µM (inactive)"},
      {"measurement": "GI50", "setting": "ACHN", "value": "> 100 µM (inactive)"},
      {"measurement": "GI50", "setting": "BT-549", "value": "> 100 µM (inactive)"},
      {"measurement": "GI50", "setting": "CAKI-1", "value": "> 100 µM (inactive)"},
      {"measurement": "GI50", "setting": "CCRF-CEM", "value": "> 100 µM (inactive)"},
      {"measurement": "GI50", "setting": "COLO 205", "value": "> 100 µM (inactive)"},
      {"measurement": "GI50", "setting": "DU-145", "value": "> 100 µM (inactive)"},
      {"measurement": "GI50", "setting": "EKVX", "value": "> 100 µM (inactive)"},
      {"measurement": "GI50", "setting": "HCC 2998", "value": "> 100 µM (inactive)"},
      {"measurement": "GI50", "setting": "HCT-116", "value": "> 100 µM (inactive)"},
      {"measurement": "GI50", "setting": "HCT-15", "value": "> 100", "unit": "µM"},
      {"measurement": "GI50", "setting": "HL-60", "value": "1.48 µM (inactive)"},
      {"measurement": "GI50", "setting": "HOP-62", "value": "> 100 µM (inactive)"},
      {"measurement": "GI50", "setting": "HOP-92", "value": "> 100 µM (inactive)"},
      {"measurement": "GI50", "setting": "HT-29", "value": "> 100 µM (inactive)"},
      {"measurement": "GI50", "setting": "IGROV-1", "value": "> 100 µM (inactive)"},
      {"measurement": "GI50", "setting": "K562", "value": "> 100 µM (inactive)"},
      {"measurement": "GI50", "setting": "KM12", "value": "> 100 µM (inactive)"},
      {"measurement": "GI50", "setting": "LOX IMVI", "value": "> 100 µM (inactive)"},
      {"measurement": "GI50", "setting": "M14", "value": "> 100 µM (inactive)"},
      {"measurement": "GI50", "setting": "MCF7", "value": "> 100 µM (inactive)"},
      {"measurement": "GI50", "setting": "MDA-MB-231", "value": "> 100 µM (inactive)"},
      {"measurement": "GI50", "setting": "MDA-MB-435", "value": "> 100 µM (inactive)"},
      {"measurement": "GI50", "setting": "MDA-N", "value": "> 100 µM (inactive)"},
      {"measurement": "GI50", "setting": "MOLT-4", "value": "> 100 µM (inactive)"},
      {"measurement": "GI50", "setting": "Malme-3M", "value": "34.4 µM (inactive)"},
      {"measurement": "GI50", "setting": "NCI-H23", "value": "> 100 µM (inactive)"},
      {"measurement": "GI50", "setting": "NCI-H460", "value": "> 100 µM (inactive)"},
      {"measurement": "GI50", "setting": "NCI-H522", "value": "> 100 µM (inactive)"},
      {"measurement": "GI50", "setting": "NCI/ADR-RES", "value": "> 100 µM (inactive)"},
      {"measurement": "GI50", "setting": "OVCAR-3", "value": "> 100 µM (inactive)"},
      {"measurement": "GI50", "setting": "OVCAR-4", "value": "> 100 µM (inactive)"},
      {"measurement": "GI50", "setting": "OVCAR-5", "value": "> 100 µM (inactive)"},
      {"measurement": "GI50", "setting": "OVCAR-8", "value": "> 100 µM (inactive)"},
      {"measurement": "GI50", "setting": "PC-3", "value": "> 100 µM (inactive)"},
      {"measurement": "GI50", "setting": "RPMI-8226", "value": "> 100 µM (inactive)"},
      {"measurement": "GI50", "setting": "SF-268", "value": "> 100 µM (inactive)"},
      {"measurement": "GI50", "setting": "SF-295", "value": "> 100 µM (inactive)"},
      {"measurement": "GI50", "setting": "SF-539", "value": "> 100 µM (inactive)"},
      {"measurement": "GI50", "setting": "SK-MEL-28", "value": "> 100 µM (inactive)"},
      {"measurement": "GI50", "setting": "SK-MEL-2", "value": "> 100 µM (inactive)"},
      {"measurement": "GI50", "setting": "SK-MEL-5", "value": "> 100 µM (inactive)"},
      {"measurement": "GI50", "setting": "SK-OV-3", "value": "> 100 µM (inactive)"},
      {"measurement": "GI50", "setting": "SN12C", "value": "> 100 µM (inactive)"},
      {"measurement": "GI50", "setting": "SNB-19", "value": "> 100 µM (inactive)"},
      {"measurement": "GI50", "setting": "SNB-75", "value": "> 100 µM (inactive)"},
      {"measurement": "GI50", "setting": "SR", "value": "> 100 µM (inactive)"},
      {"measurement": "GI50", "setting": "SW-620", "value": "> 100 µM (inactive)"},
      {"measurement": "GI50", "setting": "TK-10", "value": "> 100 µM (inactive)"},
      {"measurement": "GI50", "setting": "U-251", "value": "> 100 µM (inactive)"},
      {"measurement": "GI50", "setting": "UACC-257", "value": "> 100 µM (inactive)"},
      {"measurement": "GI50", "setting": "UACC-62", "value": "> 100 µM (inactive)"},
      {"measurement": "GI50", "setting": "UO-31", "value": "30.4 µM (inactive)"}
    ]}
  ]
}
